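Tested at 5 concentrations; 48 h exposure; 96-well plates; endpoints linearly interpolated, else capped at highest concentration. TGI is the concentration that stops growth completely.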
Tests used:
Assay in all cases: NCI anticancer screen, dose series, 48 h
786-0 renal = system: 786-0 renal
A498 renal = system: A498 renal
A549 NSCLC = system: A549 NSCLC
ACHN renal = system: ACHN renal
BT-549 breast = system: BT-549 breast
CAKI-1 renal = system: CAKI-1 renal
CCRF-CEM leukemia = system: CCRF-CEM leukemia
COLO 205 colon = system: COLO 205 colon
DU-145 prostate = system: DU-145 prostate
EKVX NSCLC = system: EKVX NSCLC
HCC-2998 colon = system: HCC-2998 colon
HCT-116 colon = system: HCT-116 colon
HCT-15 colon = system: HCT-15 colon
HL-60(TB) leukemia = system: HL-60(TB) leukemia
HOP-62 NSCLC = system: HOP-62 NSCLC
HOP-92 NSCLC = system: HOP-92 NSCLC
HS 578T breast = system: HS 578T breast
HT29 colon = system: HT29 colon
IGROV1 ovarian = system: IGROV1 ovarian
K-562 leukemia = system: K-562 leukemia
KM12 colon = system: KM12 colon
LOX IMVI melanoma = system: LOX IMVI melanoma
M14 melanoma = system: M14 melanoma
MCF7 breast = system: MCF7 breast
MDA-MB-231 breast = system: MDA-MB-231 breast
MDA-MB-435 = system: MDA-MB-435
MDA-N = system: MDA-N
MOLT-4 leukemia = system: MOLT-4 leukemia
NCI-H226 lung = system: NCI-H226 lung
NCI-H23 lung = system: NCI-H23 lung
NCI-H460 lung = system: NCI-H460 lung
NCI-H522 lung = system: NCI-H522 lung
NCI/ADR-RES ovarian = system: NCI/ADR-RES ovarian
OVCAR-3 ovarian = system: OVCAR-3 ovarian
OVCAR-4 ovarian = system: OVCAR-4 ovarian
OVCAR-5 ovarian = system: OVCAR-5 ovarian
OVCAR-8 ovarian = system: OVCAR-8 ovarian
PC-3 prostate = system: PC-3 prostate
RPMI-8226 leukemia = system: RPMI-8226 leukemia
SF-268 CNS = system: SF-268 CNS
SF-295 CNS = system: SF-295 CNS
SF-539 CNS = system: SF-539 CNS
SK-MEL-2 melanoma = system: SK-MEL-2 melanoma
SK-MEL-28 melanoma = system: SK-MEL-28 melanoma
SK-MEL-5 melanoma = system: SK-MEL-5 melanoma
SK-OV-3 ovarian = system: SK-OV-3 ovarian
SN12C renal = system: SN12C renal
SNB-19 CNS = system: SNB-19 CNS
SNB-75 CNS = system: SNB-75 CNS
SR leukemia = system: SR leukemia
SW-620 colon = system: SW-620 colon
T-47D breast = system: T-47D breast
TK-10 renal = system: TK-10 renal
U251 CNS = system: U251 CNS
UACC-257 melanoma = system: UACC-257 melanoma
UACC-62 melanoma = system: UACC-62 melanoma
UO-31 renal = system: UO-31 renal
MALME-3M melanoma = system: MALME-3M melanoma
RXF 393 renal = system: RXF 393 renal

Measured: TGI

CC1(O)CCC(C(C)(C)O)CC1 (stereo not given)
not listed: MALME-3M melanoma | RXF 393 renal
> 100 µM: all other assays above

O=C(O)c1ccccc1Sc1ccccc1[N+](=O)[O-]
not listed: SR leukemia
> 100 µM: all other assays above
